This is an account of results in US20100022562A1, “Use of Plant Growth Regulators to Reduce Abscisic Acid Related Plant Leaf Yellowing” (priority 2008, published 2010).

Data set [1] deals with Pansy plants. The data set can be described thus: Pansy yellow leaf number (leaf yellowing). It is filed as in vivo. Here is the method:
(§1) All studies were conducted in the greenhouse at the research farm of Valent BioSciences Corporation (Long Grove, Ill.). Pansy plants were obtained either from local retailers as mature plants, or plugs from wholesale nurseries. Plugs of Pansy plants were transplanted into an 18-cell flat filled with Promix BX (available from Premier Horticulture Inc. Quakertown, Pa.) and grown for about 30 days prior to treatment. During growing periods, plants received daily irrigation and weekly fertilizer (1 g/L all purpose fertilizer 20-20-20, The Scotts Company, Marysville, Ohio).
(§2) Uniform plants were selected for the study. Prior to chemical treatment, plants were saturated with water and then drained for about two hours. A total of 20 mL chemical solution, which is equivalent to about 10% of the cell volume, was applied to each plant with 3 mL solution foliar applied to canopy and 17 mL solution drench applied to root zone. Unless specified, watering of plants was stopped after chemical treatment.
After chemical treatment, plants were arranged in a randomized complete block experimental design. The plants were rated daily for the extent of wilting on a scale from 1 (no wilting) to 4 (complete wilting) to generated a sales index rating. A rating of 2.5 was the point at which a plant was determined to be unmarketable and the previous day was recorded as the shelf life of that plant in days. […] Leaf transpiration rate was measured after treatment using a LI-1600 Steady State Porometer (LI-Cor, Lincoln, Nebr.). The transpiration rate of each treatment was calculated as the percentage of that of control at each day to reduce day-to-day variation caused by changes of environmental condition such as light intensity, humidity, and temperature.

Data set [2] deals with Pansy plants. In words: Pansy shelf life under drought (daily wilting rating, sales index). In kind it is in vivo. Here is the method:
as §1, §2
After chemical treatment, plants were arranged in a randomized complete block experimental design. The plants were rated daily for the extent of wilting on a scale from 1 (no wilting) to 4 (complete wilting) to generated a sales index rating. A rating of 2.5 was the point at which a plant was determined to be unmarketable and the previous day was recorded as the shelf life of that plant in days. Yellow leaf number was counted at 3 days after chemical treatment. Leaf transpiration rate was measured after treatment using a LI-1600 Steady State Porometer (LI-Cor, Lincoln, Nebr.). The transpiration rate of each treatment was calculated as the percentage of that of control at each day to reduce day-to-day variation caused by changes of environmental condition such as light intensity, humidity, and temperature.

The mark [3] stands for this setting: 0.3 mg, Matrix Orange, drought, 3 d after treatment, Table 2.
Setting [4] is: 3 mg, Matrix Orange, drought, 3 d after treatment, Table 2.
Where [5] appears, read: 0.3 mg, Matrix Orange, drought, Table 2.
Setting [6] is: 3 mg, Matrix Orange, drought, Table 2.

On to `C/C(C#C[C@]1(O)C(C)CC(=O)CC1(C)C)=C/CO` (some centres unmarked) [PBI-51], for which the Yellow leaf number with Pansy plants [1] (3 mg, Delta Premium Pure Golden Yellow, advanced seedling stage (1 month old), drought, 3 d after treatment, Table 4) was found to be 8.2; in the data set on Pansy plants [1] (3 mg, Delta Premium Pure Golden Yellow, drought, 3 d after treatment, Table 3) it was 7.5; in the data set on Pansy plants [1] (30 mg, Delta Premium Pure Golden Yellow, advanced seedling stage (1 month old), drought, 3 d after treatment, Table 4), 8.8; with Pansy plants [1] (30 mg, Delta Premium Pure Golden Yellow, drought, 3 d after treatment, Table 3) it was 8.0. The Shelf life in the data set on Pansy plants [2] (3 mg, Delta Premium Pure Golden Yellow, advanced seedling stage (1 month old), drought, Table 4) was found to be 3.7 days; with Pansy plants [2] (3 mg, Delta Premium Pure Golden Yellow, drought, Table 3) it was 5.0 days; in the data set on Pansy plants [2] (30 mg, Delta Premium Pure Golden Yellow, advanced seedling stage (1 month old), drought, Table 4), 3.5 days; in the data set with Pansy plants [2] (30 mg, Delta Premium Pure Golden Yellow, drought, Table 3), 5.0 days.

On to `CCOC(=O)C1CC(=O)C(=C(O)C2CC2)C(=O)C1` (centres unmarked) [TE, trinexapac-ethyl], for which the Yellow leaf number in the data set with Pansy plants [1] (30 mg, Matrix Yellow, drought, 3 d after treatment, Table 10) is 8.7. In addition, the Shelf life with Pansy plants [2] (30 mg, Matrix Yellow, drought, Table 10) was 2.5 days.

In the case of `COC(=O)C=C(C)C=CC1(O)c2ccccc2C(=O)CC1(C)C` (mixture of isomers) [PBI-488, tetralone, ester], the Yellow leaf number was found to be 9.2 in the data set on Pansy plants [1] (setting [3]) and 11.5 in the data set on Pansy plants [1] (setting [4]). Also, the values for the Shelf life in the data set with Pansy plants [2] (setting [5]) and in the data set on Pansy plants [2] (setting [6]) were 5.3 days and 7.0 days, respectively.

Regarding `COC(=O)C=C(C)C#CC1(O)c2ccccc2C(=O)CC1(C)C` (mixture of isomers) [PBI-702, tetralone, first carbon tail acetylene, ester], the Yellow leaf number with Pansy plants [1] (setting [3]) amounted to 10.8; in the data set on Pansy plants [1] (setting [4]) it was 11.0. The Shelf life with Pansy plants [2] (setting [5]) came to 4.7 days; in the data set on Pansy plants [2] (setting [6]) it was 7.0 days.

With `COC(=O)C=C(C)C=CC1(O)C(C)=CC(=O)CC1(C)C1CC1` (centres unmarked) [PBI-696, 8′ cyclopropane ester], in the data set on Pansy plants [1] (setting [3]), the Yellow leaf number was 9.0. Further, the Shelf life in the data set with Pansy plants [2] (setting [5]) is 5.3 days; in the data set on Pansy plants [2] (setting [6]), 7.8 days.

For the compound `O=C(Nc1ccccc1)Nc1ccnc(Cl)c1` [CPPU, N1-(2-chloro-4-pyridyl)-N3-phenylurea], the Yellow leaf number is on record as 7.7 in the data set with Pansy plants [1] (0.02 mg CPPU, Matrix Yellow, 3 d after treatment, Table 6) and 5.7 with Pansy plants [1] (0.2 mg CPPU, Matrix Yellow, 3 d after treatment, Table 6). The Shelf life in the data set on Pansy plants [2] (0.02 mg CPPU, Matrix Yellow, Table 6) is 3.2 days; with Pansy plants [2] (0.2 mg CPPU, Matrix Yellow, Table 6), 2.8 days.

Turning to `CC1=CC1` [MCP, 1-methylcyclopropene], the Yellow leaf number is given as 1.8 in the data set with Pansy plants [1] (10 μL L^−1 MCP (12 hours) at 0 hrs, Delta Premium Pure White, 3 days after treatment, Table 22); 4.0 with Pansy plants [1] (10 μL L^−1 MCP (12 hours) at 0 hrs, Delta Premium Pure White, 7 days after treatment, Table 22); 2.2 in the data set with Pansy plants [1] (10 μL L^−1 MCP (12 hours) at +24 hrs, Delta Premium Pure White, 3 days after treatment, Table 22); 4.0 in the data set with Pansy plants [1] (10 μL L^−1 MCP (12 hours) at +24 hrs, Delta Premium Pure White, 7 days after treatment, Table 22); 2.0 in the data set with Pansy plants [1] (10 μL L^−1 MCP (12 hours) at −24 hrs, Delta Premium Pure White, 3 days after treatment, Table 22); 4.0 with Pansy plants [1] (10 μL L^−1 MCP (12 hours) at −24 hrs, Delta Premium Pure White, 7 days after treatment, Table 22). Besides, the Yellow leaf number in the data set with Pansy plants [1] (10 μL L^−1 MCP for 12 hours, Colossus Formula Mix, 3 days after treatment, Table 20) was 0.2; in the data set on Pansy plants [1] (10 μL L^−1 MCP for 12 hours, Colossus Formula Mix, 8 days after treatment, Table 20) it was 1.7; in the data set with Pansy plants [1] (10 μL L^−1 MCP for 24 hours, Delta Premium Pure White, 3 days after treatment, Table 21) it was 0.0; with Pansy plants [1] (10 μL L^−1 MCP for 24 hours, Delta Premium Pure White, 8 days after treatment, Table 21), 0.7; with Pansy plants [1] (10 μL L^−1 MCP, Delta Premium Pure White, 3 days after treatment, Table 23), 3.2; with Pansy plants [1] (10 μL L^−1 MCP, Delta Premium Pure White, 7 days after treatment, Table 23) it was 6.7. Also, the Shelf life was found to be 4.0 days in the data set on Pansy plants [2] (10 μL L^−1 MCP (12 hours) at 0 hrs, Delta Premium Pure White, Table 22); 4.0 days in the data set on Pansy plants [2] (10 μL L^−1 MCP (12 hours) at +24 hrs, Delta Premium Pure White, Table 22); 4.0 days in the data set with Pansy plants [2] (10 μL L^−1 MCP (12 hours) at −24 hrs, Delta Premium Pure White, Table 22); 4.2 days in the data set on Pansy plants [2] (10 μL L^−1 MCP for 12 hours, Colossus Formula Mix, no water, Table 20); 7.0 days with Pansy plants [2] (10 μL L^−1 MCP for 24 hours, Delta Premium Pure White, Table 21); 4.5 days in the data set with Pansy plants [2] (10 μL L^−1 MCP, Delta Premium Pure White, Table 23).

`C#CC1(C)CC(=O)C=C(C)C1(O)C=CC(C)=CC(=O)O` (centres unmarked) [PBI-524, 8′ acetylene-ABA, acid]: the Yellow leaf number with Pansy plants [1] (setting [3]) is 11.0; in the data set with Pansy plants [1] (setting [4]), 11.2. Further, the Shelf life is 6.5 days in the data set on Pansy plants [2] (setting [5]) and 8.8 days with Pansy plants [2] (setting [6]).
